# Source: PMC4109680, “Identification and Preclinical Pharmacology of the γ-Secretase Modulator BMS-869780” (International Journal of Alzheimer's Disease, 2014)
# Key:
# [1] = tested on: Aβ1-42 (H4-APPsw); assay: Aβ1-42 time-resolved fluorescence immunoassay in H4-APPsw cell cultures; format: cell-based, human; conditions: H4-APPsw cultures treated overnight
# Description: H4-APPsw cell cultures were maintained on Dulbecco's modified Eagle's medium (DMEM) supplemented with L-glutamine (2 mM), fetal bovine serum (10%), and G418 (100 μg/mL). […] Aβ1-42 and Aβ1-40 assays, and Notch inhibition assays, were carried out as described previously. Mouse embryonic fibroblasts deficient in PS1 and PS2 (MEF dKO) were passaged twice per week in DMEM/F-12 medium, consisting of a 1 : 1 mixture of DMEM and F-12 nutrient mixture supplemented with 10% fetal bovine serum, penicillin, and streptomycin. For expression of human presenilin-1 in MEF dKO cells, the full length human presenilin-1 cDNA open reading frame was cloned between the BamHI and XhoI sites of the vector pcDNA5/FRT (Invitrogen), placing presenilin-1 expression under the control of the CMV promoter. The M146V mutated allele was introduced into the presenilin-1 expression construct by polymerase chain reaction using the oligonucleotide primers 5′-[…]-3′ and 5′-[…]-3 (QuikChange kit, Invitrogen). MEF dKO cultures were cotransfected with DNA constructs expressing APP-CTF, encoding the C-terminal 99 amino acids of APP [61] and either the human presenilin-1 or presenilin-1 M146V allele. Transfected cultures were incubated overnight at 37°C in 5% CO2 atmosphere and then harvested, resuspended in DMEM/F-12 medium, dispensed into 96-well culture plates, and incubated for 6 hours at 37°C in 5% CO2 atmosphere. Culture medium was then replaced with Ultraculture serum free medium (Lonza, Rockland, ME) with or without compounds at a range of concentrations and incubated overnight.
# IC50 determinations for Aβ1-42 and Aβ1-40 in H4-APPsw cultures in 384-well format were determined using homogeneous time-resolved fluorescence immunoassays as previously described. The principle of these assays is illustrated in Figures 1(c) and 1(d). In other experiments using H4-APPsw cultures, Aβ was quantified by ELISA; for Aβ1-42 the combination of monoclonal antibodies was 26D6 and 565-HRP; for Aβ1-40 it was TSD and 26D6-HRP, and for Aβ1-x it was 4G8 and 26D6-HRP. In some experiments a novel 4-plex Aβ electrochemiluminescence immunoassay was used (Mesoscale Discovery catalog number N45ZA-1). Briefly, the 4-plex was carried out in 96-well format, with 4 separate spots of capture antibodies in each well. […] For Aβ in transiently transfected PS1/PS2 dKO fibroblasts, Aβ1-42 was quantified using an ELISA kit (WACO), and Aβ1-40 was quantified by ELISA as described above for H4-APPsw cultures. […] For the rat and mouse experiments illustrated in Figures 7 and 8, brain samples were prepared by solid phase extraction, and endogenous rat brain Aβ1-42 and Aβ1-40 were quantified by ELISA as previously described for wild type mice. […]
# [2] = tested on: CYP3A4 mRNA; assay: CYP3A4 mRNA expression in primary human hepatocytes; format: cell-based; conditions: two donors, relative to rifampicin 10 μM
# Description: Figure 10 BMS-869780 caused PXR activation in vitro and lipidosis in rat liver. (a) PXR activation in the presence of BMS-869780 was evaluated in HepG2 cell cultures using a luciferase transcriptional reporter construct (●), or by assay of CYP3A4 mRNA levels in primary human hepatocyte (PHH) cultures from two individual donors (▲ and ▼). Activation in both assays is expressed as % relative to activation in the presence of rifampicin, 10 μM, in parallel cultures. (b) Liver section from vehicle-dosed rats. (c) Liver section from rats given 4 daily doses of BMS-869780 at 100 mg/kg.
SMILES,IC50 [1] [nM],IC50 ([1]; Homo sapiens) [nM],concentrations at which CYP3A4 mRNA transcription was activated [2] [nM]
COc1cc(Nc2nc3n(n2)CCCC[C@H]3c2ccc(F)cc2)ccc1-n1cnc(Cl)c1 [BMS-869780],5.1,5.6,≥ 300
"C[C@H](c1ccc(F)cc1CCCC(=O)O)N(c1cc(F)ccc1F)S(=O)(=O)c1ccc(Cl)cc1 [BMS-299897, reference compound]",,0.47,
